# Experiments:
# bedstraw = assay: Test B pre/postemergence bedstraw; type: in vivo, Galium aparine
# Procedure, shortened: (§1)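 Herbicidal effect was estimated by eye on a ten-point control scale after plants spent twelve to sixteen days in a greenhouse following soil or foliar treatment. Foliar sprays targeted plants at one to four leaves; all doses were formulated in a non-phytotoxic solvent with surfactant.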
# blackgrass = assay: Test B pre/postemergence blackgrass; type: in vivo, Alopecurus myosuroides
# Procedure, shortened: as §1
# surinam grass = assay: Test B pre/postemergence surinam grass; type: in vivo, Brachiaria decumbens
# Procedure, shortened: as §1
# cocklebur = assay: Test B pre/postemergence cocklebur; type: in vivo, Xanthium strumarium
# Procedure, shortened: as §1
# corn = assay: Test B pre/postemergence corn; type: in vivo, Zea mays
# Procedure, shortened: as §1
# crabgrass = assay: Test B pre/postemergence crabgrass; type: in vivo, Digitaria sanguinalis
# Procedure, shortened: as §1
# giant foxtail = assay: Test B pre/postemergence giant foxtail; type: in vivo, Setaria faberii
# Procedure, shortened: as §1
# morningglory = assay: Test B pre/postemergence morningglory; type: in vivo, Ipomoea hederacea
# Procedure, shortened: as §1
# pigweed = assay: Test B pre/postemergence pigweed; type: in vivo, Amaranthus retroflexus
# Procedure, shortened: as §1
# rape = assay: Test B pre/postemergence rape; type: in vivo, Brassica napus
# Procedure, shortened: as §1
# soybean = assay: Test B pre/postemergence soybean; type: in vivo, Glycine max
# Procedure, shortened: as §1
# sugar beet = assay: Test B pre/postemergence sugar beet; type: in vivo, Beta vulgaris
# Procedure, shortened: as §1
# velvetleaf = assay: Test B pre/postemergence velvetleaf; type: in vivo, Abutilon theophrasti
# Procedure, shortened: as §1
# wheat = assay: Test B pre/postemergence wheat; type: in vivo, Triticum aestivum
# Procedure, shortened: as §1
# wild oat = assay: Test B pre/postemergence wild oat; type: in vivo, Avena fatua
# Procedure, shortened: as §1
# purple nutsedge = assay: Test B pre/postemergence purple nutsedge; type: in vivo, Cyperus rotundus
# Procedure, shortened: as §1
# [1] = Postemergence, Rate 62 g/ha, scale of 0 to 10, 0 is no effect, 10 is complete control
# [2] = Preemergence, Rate 62 g/ha, scale 0 to 10 (0 no effect, 10 complete control)
# [3] = Preemergence, Rate 125 g/ha, scale 0 to 10, 0 is no effect, 10 is complete control
# [4] = Preemergence, Rate 500 g/ha, scale of 0 to 10 where 0 is no effect and 10 is complete control
# [5] = Rate 250 g/ha, Postemergence, scale of 0 to 10 where 0 is no effect and 10 is complete control
# [6] = Postemergence, Rate 125 g/ha, scale 0 to 10, 0 is no effect, 10 is complete control
# [7] = Postemergence, Rate 500 g/ha, scale of 0 to 10 where 0 is no effect and 10 is complete control
compound,measurement,setting,value
CCCCCn1c(=O)on(C(=O)N(c2ccccc2)C(C)C)c1=O [Compound 557],Bedstraw plant response rating,bedstraw; [1],0
same,Bedstraw plant response rating,bedstraw; [2],0
same,Bedstraw plant response rating,bedstraw; [3],0
same,Bedstraw plant response rating (0 to 10 scale),"bedstraw; Preemergence, Rate 250 g/ha",0
same,Bedstraw plant response rating,bedstraw; [4],0
same,"Plant response rating, Bedstraw",bedstraw; [5],0
same,Blackgrass plant response rating,blackgrass; [1],0
same,Blackgrass plant response rating,blackgrass; [6],0
same,"Plant response rating, Blackgrass",blackgrass; [7],0
same,Blackgrass plant response rating,blackgrass; [2],6
same,Blackgrass plant response rating,blackgrass; [3],6
same,Blackgrass plant response rating (0 to 10 scale),"blackgrass; Preemergence, Rate 250 g/ha",8
same,Blackgrass plant response rating,blackgrass; [4],8
same,"Plant response rating, Blackgrass",blackgrass; [5],0
same,B. signalgrass plant response rating,surinam grass; [1],0
same,B. signalgrass plant response rating,surinam grass; [6],2
same,"Plant response rating, B. signalgrass",surinam grass; [7],2
same,B. signalgrass plant response rating,surinam grass; [2],4
same,B. signalgrass plant response rating,surinam grass; [3],6
same,"B. signalgrass plant response rating (0 to 10 scale, 0 is no effect, 10 is complete control)","surinam grass; Preemergence, Rate 250 g/ha",7
same,B. signalgrass plant response rating,surinam grass; [4],7
same,"Plant response rating, B. signalgrass",surinam grass; [5],2
same,Cocklebur plant response rating,cocklebur; [1],0
same,Cocklebur plant response rating,cocklebur; [6],0
same,"Plant response rating, Cocklebur",cocklebur; [7],0
same,Cocklebur plant response rating,cocklebur; [2],0
same,Cocklebur plant response rating,cocklebur; [3],0
same,Cocklebur plant response rating (0 to 10 scale),"cocklebur; Preemergence, Rate 250 g/ha",0
same,Cocklebur plant response rating,cocklebur; [4],0
same,"Plant response rating, Cocklebur",cocklebur; [5],0
same,Corn plant response rating,corn; [1],0
same,Corn plant response rating,corn; [6],0
same,"Plant response rating, Corn",corn; [7],2
same,Corn plant response rating,corn; [2],0
same,Corn plant response rating,corn; [3],0
same,Corn plant response rating (0 to 10 scale),"corn; Preemergence, Rate 250 g/ha",0
same,Corn plant response rating,corn; [4],0
same,"Plant response rating, Corn",corn; [5],0
same,Crabgrass plant response rating,crabgrass; [1],0
same,Crabgrass plant response rating,crabgrass; [6],5
same,"Plant response rating, Crabgrass",crabgrass; [7],4
same,Crabgrass plant response rating,crabgrass; [2],9
same,Crabgrass plant response rating,crabgrass; [3],9
same,Crabgrass plant response rating (0 to 10 scale),"crabgrass; Preemergence, Rate 250 g/ha",10
same,Crabgrass plant response rating,crabgrass; [4],10
same,"Plant response rating, Crabgrass",crabgrass; [5],4
same,Giant foxtail plant response rating,giant foxtail; [1],0
same,Giant foxtail plant response rating,giant foxtail; [6],6
same,"Plant response rating, Giant foxtail",giant foxtail; [7],6
same,Giant foxtail plant response rating,giant foxtail; [2],9
same,Giant foxtail plant response rating,giant foxtail; [3],9
same,Giant foxtail plant response rating (0 to 10 scale),"giant foxtail; Preemergence, Rate 250 g/ha",10
same,Giant foxtail plant response rating,giant foxtail; [4],10
same,"Plant response rating, Giant foxtail",giant foxtail; [5],6
same,Morningglory plant response rating,morningglory; [1],5
same,Morningglory plant response rating,morningglory; [6],8
same,"Plant response rating, Morningglory",morningglory; [7],8
same,Morningglory plant response rating,morningglory; [2],0
same,Morningglory plant response rating,morningglory; [3],0
same,Morningglory plant response rating (0 to 10 scale),"morningglory; Preemergence, Rate 250 g/ha",0
same,Morningglory plant response rating,morningglory; [4],0
same,Redroot pigweed plant response rating,pigweed; [1],0
same,"Plant response rating, Redroot pigweed",pigweed; [7],0
same,Redroot pigweed plant response rating,pigweed; [2],0
same,Redroot pigweed plant response rating,pigweed; [3],0
same,Redroot pigweed plant response rating (0 to 10 scale),"pigweed; Preemergence, Rate 250 g/ha",3
same,Redroot pigweed plant response rating,pigweed; [4],6
same,"Plant response rating, Redroot pigweed",pigweed; [5],0
same,Rape plant response rating,rape; [1],0
same,Rape plant response rating,rape; [6],0
same,"Plant response rating, Rape",rape; [7],0
same,Rape plant response rating,rape; [2],0
same,Rape plant response rating,rape; [3],0
same,Rape plant response rating (0 to 10 scale),"rape; Preemergence, Rate 250 g/ha",0
same,Rape plant response rating,rape; [4],2
same,"Plant response rating, Rape",rape; [5],0
same,Soybean plant response rating,soybean; [1],0
same,"Plant response rating, Soybean",soybean; [7],2
same,Soybean plant response rating,soybean; [2],0
same,Soybean plant response rating,soybean; [3],0
same,Soybean plant response rating (0 to 10 scale),"soybean; Preemergence, Rate 250 g/ha",0
same,Soybean plant response rating,soybean; [4],0
same,"Plant response rating, Soybean",soybean; [5],0
same,Sugarbeets plant response rating,sugar beet; [1],0
same,"Plant response rating, Sugarbeets",sugar beet; [7],0
same,Sugarbeets plant response rating,sugar beet; [2],2
same,Sugarbeets plant response rating,sugar beet; [3],3
same,Sugarbeets plant response rating (0 to 10 scale),"sugar beet; Preemergence, Rate 250 g/ha",3
same,Sugarbeets plant response rating,sugar beet; [4],4
same,"Plant response rating, Sugarbeets",sugar beet; [5],0
same,Velvetleaf plant response rating,velvetleaf; [1],0
same,"Plant response rating, Velvetleaf",velvetleaf; [7],2
same,Velvetleaf plant response rating,velvetleaf; [2],0
same,Velvetleaf plant response rating,velvetleaf; [3],0
same,Velvetleaf plant response rating (0 to 10 scale),"velvetleaf; Preemergence, Rate 250 g/ha",0
same,Velvetleaf plant response rating,velvetleaf; [4],0
same,"Plant response rating, Velvetleaf",velvetleaf; [5],0
same,Wheat plant response rating,wheat; [1],0
same,"Plant response rating, Wheat",wheat; [7],0
same,Wheat plant response rating,wheat; [2],0
same,Wheat plant response rating,wheat; [3],0
same,Wheat plant response rating (0 to 10 scale),"wheat; Preemergence, Rate 250 g/ha",0
same,Wheat plant response rating,wheat; [4],3
same,"Plant response rating, Wheat",wheat; [5],0
same,Wild oats plant response rating,wild oat; [1],0
same,"Plant response rating, Wild oats",wild oat; [7],0
same,Wild oats plant response rating,wild oat; [2],0
same,Wild oats plant response rating,wild oat; [3],2
same,Wild oats plant response rating (0 to 10 scale),"wild oat; Preemergence, Rate 250 g/ha",0
same,Wild oats plant response rating,wild oat; [4],7
same,"Plant response rating, Wild oats",wild oat; [5],0
same,Nutsedge plant response rating,purple nutsedge; [1],0
same,Nutsedge plant response rating,purple nutsedge; [6],0
same,"Plant response rating, Nutsedge",purple nutsedge; [7],0
same,Nutsedge plant response rating,purple nutsedge; [2],0
same,Nutsedge plant response rating,purple nutsedge; [3],0
same,Nutsedge plant response rating (0 to 10 scale),"purple nutsedge; Preemergence, Rate 250 g/ha",0
same,Nutsedge plant response rating,purple nutsedge; [4],0
same,"Plant response rating, Nutsedge",purple nutsedge; [5],0

# Source: US6737383B1, “Herbicidal oxadiazolidines” (priority 1999, dated 2004)
